Here are results for two molecules from patent US20160346412A1, “A KIT FOR PREPARING A RADIOPHARMACEUTICAL” (THE SOUTH AFRICAN NUCLEAR ENERGY CORPORATION LIMITED, priority 2014, published 2016).

Data set [1] in a line: Stability of the ligand in water. Type of data set: physicochemical. Particulars: free ligand versus metal-chelated ligand. Here is the method: The production of kits of ECDG, a water labile ligand, is problematic as the normal kit procedure includes a lyophilisation step in the aqueous phase wherein the pure ligand active pharmaceutical ingredient (API) is dissolved in water/saline containing at least one each of a reducing agent, additive and buffer, distributed in vials and freeze dried. At the hospital the ^99mTc in saline is added to the kit and reconstituted. The ^99mTc is then chelated to the ECDG ligand and the ^99mTc-ECDG radiopharmaceutical is ready for injection.

For data set [2] the following is noted: aqueous medium in the published syntheses; cited from earlier work.

For `O=C(NC1C(O)O[C@H](CO)[C@@H](O)[C@@H]1O)C(CS)NCCN[C@@H](CS)C(=O)NC1C(O)O[C@H](CO)[C@@H](O)[C@@H]1O` (stereo partly drawn) [ECDG, ethylenedicysteine deoxyglucosamine], in data set [1], the stability in water result is given as “breaks down in water almost immediately”. For the same molecule, the “sensitivity to air, light, water and temperature” value in data set [2] is “air, light, water and temperature sensitive”. For `O=C(NC1C(O)O[C@H](CO)[C@@H](O)[C@@H]1O)C1C[S][Tc]23(=[O])[S]C[C@@H](C(=O)NC4C(O)O[C@H](CO)[C@@H](O)[C@@H]4O)[N]2CC[N]13` (stereo partly drawn) [^99mTc-ECDG, ^99mTechnetium-ethylenedicysteine deoxyglucosamine], the stability in water result in data set [1] is reported as “stable in water”.
